Reference: US20250289878A1, “SURFACE-MODIFIED EXOSOMES AND METHODS OF USE” (The Board of Regents of the University of Oklahoma, priority 2021, published 2025)

How the values were obtained:
[1] = test system: B16F10 cells; test: CCK-8 cell viability / cytotoxicity test; format: cell-based, murine; conditions: Mus musculus, B16-F10, DOX concentration, 24 hours, read-out: half-maximal inhibitory concentration (IC50)
Protocol: Cells (B16F10 and RAW 264.7 cell line) were grown in DMEM containing 10% FBS at 37° C. with 5% CO2. B16F10 and RAW 264.7 cells were seeded on the 96 well tissue culture plates (1×10^4 per well) and cultured for 24 hours. To confirm the biosafety of ASL and AEx, the cells were treated with various concentrations of ASL and AEx and incubated for 24 hours. For the cytotoxicity test, B16F10 cells were given the various concentrations of dAEx, dEx, DOX. In addition to the further competition test, B16F10 cells were incubated with the cyclic RGD (2 μM) for 2 hours and treated with the various concentrations of dAEx. After 24 hours of the treatment, to investigate the cell survival, cells were washed using the fresh PBS twice, and 10% CCK-8 containing DMEM was added to each well and incubated for 1 hour. The absorbance was measured using a microplate reader at 450 nm.

[2] = test system: cleaved caspase-3 and cleaved PARP of B16F10 cells; test: Apoptotic activity: cleaved caspase-3 and cleaved PARP by ELISA and western blot; format: cell-based, murine; conditions: DOX 5 μM, 24 hours
Protocol: B16F10 cells were seeded in a 100 mm cell culture dish with cell density at 4.4×10^6 and incubated for 24 hours. After the treatment of various agents with a fixed concentration of DOX (5 μM) for 24 hours, proteins were collected using a cell lysis buffer on ice. Proteins were separated by electrophoresis and transferred to PVDF membranes. Cleaved caspase-3, cleaved PARP, and β-actin (Cell Signaling Technology, Danvers, MA, USA) were used as primary antibodies, and IRDye secondary antibodies (LI-COR Biosciences, Lincoln, NE, USA) were used as secondary antibodies. The protein bands were imaged using the Odyssey CLx (LI-COR Biosciences, Lincoln, NE, USA). The apoptotic activities of dAEx were evaluated by measuring the level of cleaved caspase-3, and cleaved PARP in the protein samples with a cleaved PARP (Cell Signaling Technology, Danvers, MA, USA) and a cleaved caspase-3 (R&D systems, Minneapolis, MN, USA) ELISA kit according to manufacturer's protocol.

[3] = test system: B16F10 tumor; test: B16F10 murine tumor model, therapeutic efficacy; format: in vivo, mice; conditions: IV every three days, DOX 5 mg/kg (ASL 2.5 mg/kg), vs untreated control
Protocol: B16F10 cells (1×10^6) were directly injected into the flank of 6 weeks old mice. The mice were randomly grouped by six in each and observed until the cancer volume reached ˜50 mm^3. […] The tumor volume was calculated based on the formula: (width^2×length)/2. On day 18, the mice were sacrificed, and organs were harvested for histological analysis. H&E and TUNEL staining were performed using the paraffin-embedded tissues.

How did the IC50 [1] turn out when `COc1cccc2c1C(=O)c1c(O)c3c(c(O)c1C2=O)C[C@@](O)(C(=O)CO)C[C@@H]3O[C@H]1C[C@H](N)[C@H](O)[C@H](C)O1` [DOX, Doxorubicin] was run?
Its IC50 is 9.85 ± 1.06 µM.

What about the “expression of cleaved caspase-3 and cleaved PARP” value [2] of the same molecule?
The value was “slight activation”.

And the “tumor growth (tumor volume)” value [3]?
Its value is “did not significantly inhibit tumor growth”.
